Results reported in patent publication US20100204460A1, “NATURAL BRASSINOSTEROIDS FOR USE FOR TREATING HYPERPROLIFERATION, TREATING PROLIFERATIVE DISEASES AND REDUCING ADVERSE EFFECTS OF STEROID DYSFUNCTION IN MAMMALS, PHARMACEUTICAL COMPOSITION AND ITS USE” (priority 2007, published 2010).

Assays:
Format in all cases: cell-based
MCF-7 cells [1] = test: TUNEL detection of apoptosis, MCF-7; settings: IC50 concentration
Experimental: TdT-Mediated dUTP nick end labeling (TUNEL) detection of apoptosis index. For detection of apoptotic cells, the TUNEL assay was used. […] After period of treatment, the cells were washed with PBS and fixed on the slides with cold acetone-methanol (1:1, v/v) for 10 min. Apoptosis-induced nuclear DNA fragmentation was detected by terminal deoxynucleotidyl transferase-mediated UTP nick end labeling (TUNEL) technique according to the producer protocol (In Situ Cell Death Detection Kit; Roche Diagnostics, Mannheim, Germany). The cells were then washed three times in PBS and stained with 4′-6-diamidino-2-phenylindole (DAPI; 50 μg/ml; Sigma, St. Louis, Mo., USA) for 10 min in the dark. The coverslips with cells were washed in deionized water and mounted on glass slides, using the hydrophilic medium Mowiol (Calbiochem, Fremont, Calif., USA) in glycerol-PBS (1:3, v/v) for fluorescence. Cells were visualized using fluorescence microscopy and compared with control cells. TUNEL staining achieved to confirm apoptosis in all cell lines.

[2] = test system: LNCaP (androgen-sensitive) prostate cancer cell line; test: MTT cytotoxicity test, LNCaP; settings: 24 h, mean ± SD, read-out: IC50 determined by MTT cytotoxicity test
Experimental: (§1) 3-(4,5-Dimethylthiazol-2-yl)-2,5-diphenyltetrazolium bromide (MTT) was from Serva Electrophoresis (Heidelberg, Germany). Monoclonal mouse anti-bromodeoxyuridine (BrdU) intibody was obtained from DakoCytomation (Glostrup, Denmark). Calcein AM was obtained from PAA Laboratories GmbH (Pasching, Austria). […] All other cells were cultured in DMEM medium (Sigma, MO, USA). All used media were supplemented with 10% heat-inactivated fetal bovine serum, 2 mmol/L L-glutamine, 1% penicillin/streptomycin. The cell lines were maintained under standard cell culture conditions at 37° C. and 5% CO2 in a humid environment. Cells were subcultured twice or three times a week using the standard trypsinization procedure (Sigma, USA).
(§2) Cell viability in this case was assessed by 3-(4,5-dimethylthiozol-2-yl)-2,5-diphenyltetrazolium bromide (MTT) to determine IC50 concentrations of studied agents as described previously. […] The cells (70% to 80% confluent) were treated with brassinosteroids for 6, 12 and 24 h in cell culture medium. Cells that were used as controls were incubated with the maximum used amount of steroid diluent DMSO only. […] The absorbance was read using an ELISA reader Labsystem Multiscan RC at 570 nm. The viability of treated cells was related to the viability of control cells that represented 100% viability. […]

MCF-7 cells [3] = test: BrdU incorporation assay, MCF-7
Experimental: To analyze if the inhibition in cell viability was due to decreased cell proliferation, we measured DNA synthesis in the presence of BRs. The effect of brassinosteroids 9 or 6 on cell proliferation and DNA replication of the cancer cells was measured by BrdU incorporation assay. This immunostaining was based on nuclear incorporation of bromodeoxyuridine (BrdU) into DNA in place of thymidine during the S-phase of cell cycle detected by anti-specific-BrdU antibody following membrane permeabilization as described previously (Gratzner, Science. 1982, 218, 474-475). […] The BrdU reagent (0.1 mM; Sigma, MO, USA) was added in culture medium with cells for 4 h in a CO2 incubator at 37° C. After incubation the cells were washed three times with PBS and fixed with cold acetone-methanol (1:1, v/v) for 10 min. The cells were denaturated by HCl (1:5; Lachema, Czech Republic) and incubated with anti-specific-BrdU antibody (diluted 1:100 in PBS; clone Bu20a, DakoCytomation, Denmark) for 60 min in the dark. The cells were then washed three times in PBS (10 mM, pH 7.4) and incubated with goat anti-mouse fluorescein isothiocyanate (FITC)-labeled secondary antibody (Sigma, MO, USA) for 60 min in the dark. The cells were then washed three times in PBS and incubated with DAPI (50 μg/mL; Sigma, MO, USA) for 10 min in the dark. The coverslips with cells were washed in deionized water and mounted on glass slides, using the hydrophilic medium Mowiol (Calbiochem, Calif., USA) in glycerol-PBS (1:3, v/v) for fluorescence. Cells were visualized using microscopy and those incorporating BrdU (S phase cells) were counted in at least 25 fields and compared with the total number of all cells.

MDA-MB-468 cells = test: Cell cycle distribution by flow cytometry, MDA-MB-468; settings: IC50, 24 h; for Apoptosis subG1 fraction: control 10%; for Cell cycle distribution G2/M: control 17%; for Cell cycle distribution S: control 31%; for Cell cycle distribution G1: control 52%
Text: In the MCF-7 breast cancer cell line that has been the most widely studied experimental cell system, the typical growth inhibitory response to antiestrogens is decrease in the proportion of cells synthesising DNA (S phase) after antiestrogen treatment. This decrease in S phase coincides with an increase in the proportion of cells in G0/G1 phase. The activity of the androgen receptor (AR) is also regulated by alterations in cell signaling. There has been reported ligand independent activation of AR in prostate cancer cells by different growth factors. As the AR can be activated in the absence of hormone, it appears that the conditions may be more restricted than those observed for ER. Use of physiologic doses of ligand (dihydrotestosterone, DHT) is of importance as the LNCaP cells proliferate only at DHT concentration of 10^−9 M or lower. […] In contrast to proliferation, transactivation of AR specific target genes (e.g. PSA) continues to increase with DHT doses of 10^−10 M and higher. It might be accepted for estrogen or androgen receptors as stronger cytotoxic activities of brassinosteroids 9 or 6 on hormone-sensitive (MCF-7, LNCaP) compared to hormone-insensitive (MDA-MB-468, DU-145) cell lines were found. Therefore we explored the possibility of cell cycle perturbation by BRs in different cancer cell lines. Flow cytometry was used to evaluate the number of cells in the particular phases of the cell cycle, including subG1 peak detection. Control and treated cells were washed twice with cold PBS and centrifuged at 360×g for 10 min at 4° C., and fixed with chilled ethanol (70%; v/v) by low-speeded vortexing. For detection of DNA content analysis, propidium iodide staining was used. The cells were analyzed using a FACSCalibur flow cytometer (BD Biosciences, San Jose, Calif.).
Flow-cytometric detection of apoptosis. Several studies have declared that the induction of apoptosis may be cell cycle-dependent. Therefore, in our next series of experiments, we tested if brassinosteroids 9 or 6 cause apoptosis of the breast and prostate cancer cells via cell cycle blockage. From this reason we carried out DNA cell cycle analysis by flow cytometry based on detection of endonucleolytic DNA degradation that results in extraction of low molecular weight DNA from the cells. […] The subG1 peak containing apoptotic bodies was however not observed in MCF-7 cells.

[4] = test system: MCF-7 (estrogen receptor-α-positive) breast cancer cell line; test: MTT cytotoxicity test, MCF-7; settings: 24 h, mean ± SD, read-out: IC50 determined by MTT cytotoxicity test
Experimental: as §1, §2

[5] = treated at IC50 for 6 h, control 50 ± 3.6
[6] = treated at IC50 for 12 h, control 53 ± 3.5
[7] = treated at IC50 for 24 h, control 69 ± 4.5

CC(C)[C@@H](C)[C@@H](O)[C@H](O)[C@@H](C)[C@H]1CC[C@H]2[C@@H]3COC(=O)[C@H]4C[C@H](O)[C@H](O)C[C@]4(C)[C@H]3CC[C@]12C [Brassinosteroid 6, 24-Epibrassinolide]
percentage of TUNEL positive cells (MCF-7 cells [1]; 6 h, control 0.0 ± 0.0): 2.7 ± 1.2 % | percentage of TUNEL positive cells (MCF-7 cells [1]; 12 h, control 0.0 ± 0.0): 8.3 ± 3.1 % | percentage of TUNEL positive cells (MCF-7 cells [1]; 24 h, control 0.3 ± 0.6): 11.7 ± 3.8 % | IC50 [2]: 60 ± 3.1 µM | percentage of proliferating BrdU positive cells (MCF-7 cells [3]; [5]): 42 ± 3.2% | percentage of proliferating BrdU positive cells (MCF-7 cells [3]; [6]): 40 ± 7.1% | percentage of proliferating BrdU positive cells (MCF-7 cells [3]; [7]): 36 ± 5.5 % | Apoptosis subG1 fraction (MDA-MB-468 cells): 75% | Cell cycle distribution G2/M (MDA-MB-468 cells): 2% | Cell cycle distribution S (MDA-MB-468 cells): 10% | Cell cycle distribution G1 (MDA-MB-468 cells): 88% | IC50 [4]: 60 ± 1.8 µM

CC[C@@H](C(C)C)[C@@H](O)[C@H](O)[C@@H](C)[C@H]1CC[C@H]2[C@@H]3CC(=O)[C@H]4C[C@H](O)[C@H](O)C[C@]4(C)[C@H]3CC[C@]12C [Brassinosteroid 9, 28-Homocastasterone]
percentage of TUNEL positive cells (MCF-7 cells [1]; 6 h, control 0.0 ± 0.0): 10.6 ± 1.5 % | percentage of TUNEL positive cells (MCF-7 cells [1]; 12 h, control 0.0 ± 0.0): 13.7 ± 3.8 % | percentage of TUNEL positive cells (MCF-7 cells [1]; 24 h, control 0.3 ± 0.6): 13.7 ± 2.6 % | IC50 [2]: 45 ± 2.3 µM | percentage of proliferating BrdU positive cells (MCF-7 cells [3]; [5]): 46 ± 2.5% | percentage of proliferating BrdU positive cells (MCF-7 cells [3]; [6]): 31 ± 3.8 % | percentage of proliferating BrdU positive cells (MCF-7 cells [3]; [7]): 29±4.0% | Apoptosis subG1 fraction (MDA-MB-468 cells): 35% | Cell cycle distribution G2/M (MDA-MB-468 cells): 9% | Cell cycle distribution S (MDA-MB-468 cells): 17% | Cell cycle distribution G1 (MDA-MB-468 cells): 74% | IC50 [4]: 40 ± 1.5 µM
